Results as given in ChEMBL document CHEMBL5370605, “Discovery of Novel Fedratinib-Based HDAC/JAK/BRD4 Triple Inhibitors with Remarkable Antitumor Activity against Triple Negative Breast Cancer” (J Med Chem, 2023).

Legend:
[1] = target: Tyrosine-protein kinase JAK2 (Homo sapiens, UniProt O60674); assay: Inhibition of JAK2 (unknown origin) incubated for 40 mins in presence of ATP by Kinase-glo luminescent assay
[2] = Metabolic stability in mouse liver microsomes assessed as intrinsic clearance in presence of NADPH by LC-MS/MS analysis; type: ADME, Microsome; details: read-out: CLH
[3] = Half life in ICR (CD-1) mouse at 10 mg/kg, iv measured for 24 hrs by LC-MS/MS analysis; type: ADME, organism-based; details: in vivo
[4] = Half life in ICR (CD-1) mouse at 50 mg/kg, ip measured for 24 hrs by LC-MS/MS analysis; type: ADME, organism-based; details: in vivo
Histone deacetylase 4 = Histone deacetylase 4 (Homo sapiens, UniProt P56524); assay: Inhibition of HDAC4 (unknown origin) using Boc-Lys-(trifluoroacetyl)-AMC as substrate incubated for 30 mins by fluorescence based analysis
[5] = target: T1, Tyrosine-protein kinase JAK3 (Homo sapiens, UniProt P52333); assay: Inhibition of JAK3 (unknown origin) incubated for 40 mins in presence of ATP by Kinase-glo luminescent assay
T1 sequence (P52333 whole entry): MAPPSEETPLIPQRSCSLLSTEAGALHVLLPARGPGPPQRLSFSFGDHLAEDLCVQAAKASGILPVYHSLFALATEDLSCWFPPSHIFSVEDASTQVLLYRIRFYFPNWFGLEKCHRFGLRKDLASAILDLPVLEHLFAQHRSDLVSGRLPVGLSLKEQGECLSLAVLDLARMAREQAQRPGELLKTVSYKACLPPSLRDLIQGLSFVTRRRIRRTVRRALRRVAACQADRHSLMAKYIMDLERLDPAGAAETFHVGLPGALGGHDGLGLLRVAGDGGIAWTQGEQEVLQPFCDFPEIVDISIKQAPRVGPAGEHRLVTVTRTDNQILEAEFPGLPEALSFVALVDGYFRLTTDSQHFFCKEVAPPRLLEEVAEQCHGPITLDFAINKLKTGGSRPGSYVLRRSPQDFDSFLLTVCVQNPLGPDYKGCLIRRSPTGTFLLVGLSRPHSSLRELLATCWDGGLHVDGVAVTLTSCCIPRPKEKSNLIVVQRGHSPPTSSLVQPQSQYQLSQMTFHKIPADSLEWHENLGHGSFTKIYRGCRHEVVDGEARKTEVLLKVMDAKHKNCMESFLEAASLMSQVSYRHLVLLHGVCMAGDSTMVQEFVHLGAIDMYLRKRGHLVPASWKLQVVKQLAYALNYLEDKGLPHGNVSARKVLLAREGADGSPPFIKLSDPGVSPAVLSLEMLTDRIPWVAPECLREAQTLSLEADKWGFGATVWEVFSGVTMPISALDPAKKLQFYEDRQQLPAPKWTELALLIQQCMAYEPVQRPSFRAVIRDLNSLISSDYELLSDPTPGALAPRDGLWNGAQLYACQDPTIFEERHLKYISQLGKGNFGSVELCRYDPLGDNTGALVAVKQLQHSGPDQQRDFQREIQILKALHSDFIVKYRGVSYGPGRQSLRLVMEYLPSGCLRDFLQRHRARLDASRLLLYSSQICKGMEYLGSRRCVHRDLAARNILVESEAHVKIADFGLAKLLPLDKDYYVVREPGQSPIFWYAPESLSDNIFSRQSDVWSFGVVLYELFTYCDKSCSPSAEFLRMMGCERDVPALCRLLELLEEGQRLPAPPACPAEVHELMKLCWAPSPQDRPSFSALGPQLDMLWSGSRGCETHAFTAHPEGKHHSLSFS

[6] = target: T2, Receptor-type tyrosine-protein kinase FLT3 (Homo sapiens, UniProt P36888); assay: Inhibition of FLT3 (unknown origin) incubated for 40 mins in presence of ATP by Kinase-glo luminescent assay
T2 sequence (P36888 whole entry): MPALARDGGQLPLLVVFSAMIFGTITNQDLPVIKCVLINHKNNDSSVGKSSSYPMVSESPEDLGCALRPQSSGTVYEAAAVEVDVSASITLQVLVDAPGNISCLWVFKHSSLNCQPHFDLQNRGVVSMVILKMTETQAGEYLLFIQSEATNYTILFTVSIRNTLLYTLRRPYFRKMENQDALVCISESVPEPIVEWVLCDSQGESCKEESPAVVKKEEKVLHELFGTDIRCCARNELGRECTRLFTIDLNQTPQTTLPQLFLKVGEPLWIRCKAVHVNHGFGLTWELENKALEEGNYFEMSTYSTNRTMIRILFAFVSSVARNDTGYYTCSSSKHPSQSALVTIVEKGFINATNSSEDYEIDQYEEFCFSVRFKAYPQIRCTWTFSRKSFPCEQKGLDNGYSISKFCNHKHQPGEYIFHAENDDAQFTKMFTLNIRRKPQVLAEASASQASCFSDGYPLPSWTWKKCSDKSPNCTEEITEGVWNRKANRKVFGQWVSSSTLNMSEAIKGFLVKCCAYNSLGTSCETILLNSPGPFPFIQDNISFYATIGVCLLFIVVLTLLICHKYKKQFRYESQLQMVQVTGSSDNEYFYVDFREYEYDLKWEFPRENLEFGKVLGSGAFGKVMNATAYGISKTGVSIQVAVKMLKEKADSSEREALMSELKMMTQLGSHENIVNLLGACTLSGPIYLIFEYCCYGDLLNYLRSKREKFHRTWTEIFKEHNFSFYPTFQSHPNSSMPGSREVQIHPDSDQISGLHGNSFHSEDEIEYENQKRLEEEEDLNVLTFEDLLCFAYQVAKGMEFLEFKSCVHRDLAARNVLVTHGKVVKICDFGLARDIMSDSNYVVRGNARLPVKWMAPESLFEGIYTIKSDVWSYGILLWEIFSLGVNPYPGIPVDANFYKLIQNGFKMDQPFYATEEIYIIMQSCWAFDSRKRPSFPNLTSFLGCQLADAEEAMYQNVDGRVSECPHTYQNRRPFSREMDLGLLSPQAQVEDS

[7] = Cmax in ICR (CD-1) mouse at 50 mg/kg, ip measured for 24 hrs by LC-MS/MS analysis; type: ADME, organism-based; set-up: time 24 hrs, dose 50 mg/kg, route ip; details: in vivo

Histone deacetylase 4, sequence (P56524 whole entry): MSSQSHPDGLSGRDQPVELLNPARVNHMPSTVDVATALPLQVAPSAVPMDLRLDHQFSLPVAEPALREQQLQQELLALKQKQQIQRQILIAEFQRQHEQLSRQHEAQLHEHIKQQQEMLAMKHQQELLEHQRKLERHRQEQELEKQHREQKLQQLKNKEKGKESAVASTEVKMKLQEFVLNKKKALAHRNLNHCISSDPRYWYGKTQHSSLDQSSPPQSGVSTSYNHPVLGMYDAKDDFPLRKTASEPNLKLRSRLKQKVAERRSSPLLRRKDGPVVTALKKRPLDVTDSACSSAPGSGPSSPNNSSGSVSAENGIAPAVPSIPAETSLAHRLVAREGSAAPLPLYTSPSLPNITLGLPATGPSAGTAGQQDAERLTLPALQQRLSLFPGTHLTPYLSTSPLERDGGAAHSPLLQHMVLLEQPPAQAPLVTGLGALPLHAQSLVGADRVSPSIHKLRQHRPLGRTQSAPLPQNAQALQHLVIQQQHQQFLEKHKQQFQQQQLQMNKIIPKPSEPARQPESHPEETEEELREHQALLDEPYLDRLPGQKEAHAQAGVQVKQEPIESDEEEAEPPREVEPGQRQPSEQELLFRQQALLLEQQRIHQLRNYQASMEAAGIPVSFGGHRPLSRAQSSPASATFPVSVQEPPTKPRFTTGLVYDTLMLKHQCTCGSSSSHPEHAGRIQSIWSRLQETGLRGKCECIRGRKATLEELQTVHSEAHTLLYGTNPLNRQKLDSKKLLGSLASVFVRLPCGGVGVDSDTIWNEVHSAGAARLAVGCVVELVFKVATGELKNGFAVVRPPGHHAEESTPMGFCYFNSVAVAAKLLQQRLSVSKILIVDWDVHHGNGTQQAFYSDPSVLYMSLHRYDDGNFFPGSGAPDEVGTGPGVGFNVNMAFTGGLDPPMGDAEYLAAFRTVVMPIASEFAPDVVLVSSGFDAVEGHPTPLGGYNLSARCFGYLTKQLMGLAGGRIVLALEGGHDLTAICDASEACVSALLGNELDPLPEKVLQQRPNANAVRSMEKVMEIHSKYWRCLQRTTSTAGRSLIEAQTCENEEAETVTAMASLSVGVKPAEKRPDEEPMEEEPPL
Tyrosine-protein kinase JAK2, sequence (O60674 whole entry): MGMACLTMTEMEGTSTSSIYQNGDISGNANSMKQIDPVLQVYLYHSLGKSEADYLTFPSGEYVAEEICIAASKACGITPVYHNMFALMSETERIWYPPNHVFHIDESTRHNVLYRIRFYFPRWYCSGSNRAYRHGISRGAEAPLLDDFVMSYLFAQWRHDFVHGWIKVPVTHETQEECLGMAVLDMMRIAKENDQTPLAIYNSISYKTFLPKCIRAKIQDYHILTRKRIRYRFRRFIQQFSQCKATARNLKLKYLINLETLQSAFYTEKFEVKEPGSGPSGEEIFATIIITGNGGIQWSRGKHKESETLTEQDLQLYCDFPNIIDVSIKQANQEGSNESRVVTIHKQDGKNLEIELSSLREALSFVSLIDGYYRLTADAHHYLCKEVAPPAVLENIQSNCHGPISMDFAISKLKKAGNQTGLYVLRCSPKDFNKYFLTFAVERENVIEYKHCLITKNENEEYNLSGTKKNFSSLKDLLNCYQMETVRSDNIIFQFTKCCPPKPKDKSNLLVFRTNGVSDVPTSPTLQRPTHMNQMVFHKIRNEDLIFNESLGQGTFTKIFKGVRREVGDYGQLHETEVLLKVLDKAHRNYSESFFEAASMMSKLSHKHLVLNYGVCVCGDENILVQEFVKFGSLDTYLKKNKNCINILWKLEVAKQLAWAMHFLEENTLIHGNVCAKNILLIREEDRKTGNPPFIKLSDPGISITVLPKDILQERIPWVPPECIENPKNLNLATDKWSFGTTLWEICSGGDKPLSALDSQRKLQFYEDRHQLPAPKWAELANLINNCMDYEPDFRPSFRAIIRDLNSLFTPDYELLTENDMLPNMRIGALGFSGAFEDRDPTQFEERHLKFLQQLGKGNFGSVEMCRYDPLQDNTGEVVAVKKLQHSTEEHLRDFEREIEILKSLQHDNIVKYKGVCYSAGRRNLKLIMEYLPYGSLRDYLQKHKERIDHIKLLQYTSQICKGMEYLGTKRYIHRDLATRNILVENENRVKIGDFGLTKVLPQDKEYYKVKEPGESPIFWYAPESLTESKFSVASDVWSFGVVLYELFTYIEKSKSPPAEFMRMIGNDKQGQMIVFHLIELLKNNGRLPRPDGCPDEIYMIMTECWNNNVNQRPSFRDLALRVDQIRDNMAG

IC50 [1]: 1.8 nM
CLint scaled [2]: 146 mL/min/kg
t1/2 [3]: 1.49 h
half-life [4]: 2.51 h
IC50 (Histone deacetylase 4): > 5000 nM
IC50 [5]: 91 nM
IC50 [6]: 10.9 nM
Cmax [7]: 9560 ng/mL
SMILES: Cc1cnc(Nc2ccc(OCCN3CCCC3)cc2)nc1Nc1ccc(C(=O)NO)cc1
